Patent US20120116069A1, “GLUCOSE METABOLISM-IMPROVING AGENT AND GLUCOSE METABOLISM-IMPROVING COMPOSITION” (LION CORPORATION, priority 2009, published 2012)

Legend:
[1] = test system: model mice of hyperglycemia (KKAy mouse); assay: Blood sugar level of KKAy mice after one-week main breeding on high fat diet containing PT or PD; type: in vivo; details: 0.1% by mass in high fat diet (control group 335.4 mg/dL)
Description: Twenty-four model mice of hyperglycemia (KKAy mouse (product of CLEA Japan, Inc.), male, four weeks old) were preliminarily bred for one week in individual cages under the following conditions: temperature: room temperature (22° C.±1° C.), humidity: 50%±5%, and light-dark cycle: 12 hours. Eight grams per day of CE-2 (product of CLEA Japan, Inc.) was given to each mouse as feed during the preliminary breeding, while water was given ad libitum. After completion of the preliminary breeding, the mice were measured for body weight and blood sugar level. Then, they were divided into three groups, each containing eight mice, so that the body weights and blood sugar levels were averaged in the three groups, followed by main breeding in a manner described below. […] GB SENSOR (product of Sanko Junyaku Co., Ltd.) using the whole blood sampled from the tale vein of the mouse. The mice of one group were subjected to main breeding for one week under the conditions that eight grams per day of a commercially available high fat diet (trade name: Quick Fat, product of CLEA Japan, Inc.) was given to each mouse while water was given ad libitum. […] Hereinafter, this group may be referred to as “PD-administered group.” After the one-week main breeding, the mice were measured for blood sugar level and body weight, and then were subjected to measurement of the amount of ^13CO2 excreted.

[2] = test system: model mice of hyperglycemia (KKAy mice); assay: Blood sugar level of model mice of hyperglycemia bred five days on PT- or PD-containing high fat diet; type: in vivo, mouse; details: for Blood sugar level (post-breeding): after five days; for Blood sugar level (initial value): before breeding
Description: Panaxatriol (PT) (product of LKT Laboratories, Inc.) was mixed with a commercially available high fat diet (trade name: Quick Fat, product of CLEA Japan, Inc.) in amounts shown in the following Table 1. Each of the thus-prepared feeds was given ad libitum to model mice of hyperglycemia (KKAy mice (product of CLEA Japan, Inc.), eight weeks old, 5 mice/group) to breed them for five days (hereinafter these groups may be referred to as “PT-containing group”). Mice of a control group were given a panaxatriol (PT)-free feed (hereinafter this group may be referred to as “PT-free group”). The blood sugar level was measured at 10 a.m. before breeding of the panaxatriol (PT)-containing high fat diet (initial value) and after breeding thereof (post-breeding). […] GB SENSOR (product of Sanko Junyaku Co., Ltd.) was used for the measurement of the blood sugar level. The values shown in the following Table 1 are calculated on the basis of the average value of two values obtained by measuring each individual twice for the postprandial blood sugar level. […] Panaxadiol (PD) (product of LKT Laboratories, Inc.) was mixed with a commercially available high fat diet (trade name: Quick Fat, product of CLEA Japan, Inc.) in amounts shown in the following Table 2. Each of the thus-prepared feeds was given ad libitum to model mice of hyperglycemia (KKAy mice (product of CLEA Japan, Inc.), eight weeks old, 5 mice/group) to breed them for five days (hereinafter these groups may be referred to as “PD-containing group”). Mice of a control group were given a panaxadiol (PD)-free feed (hereinafter this group may be referred to as “PD-free group”). The blood sugar level was measured at 10 a.m. before breeding of the panaxadiol (PD)-containing high fat diet (initial value) and after breeding thereof (post-breeding). […] GB SENSOR (product of Sanko Junyaku Co., Ltd.) was used for the measurement of the blood sugar level. The values shown in the following Table 2 are calculated on the basis of the average value of two values obtained by measuring each individual twice for the postprandial blood sugar level.

[3] = 0.0001% by mass in high fat diet ad libitum
[4] = 0.001% by mass in high fat diet ad libitum
[5] = 0.01% by mass in high fat diet ad libitum
[6] = group 0.0001% by mass in high fat diet
[7] = group 0.001% by mass in high fat diet
[8] = group 0.01% by mass in high fat diet

SMILES: CC1(C)CCC[C@](C)([C@H]2CC[C@]3(C)[C@@H]2[C@H](O)C[C@@H]2[C@@]4(C)CC[C@H](O)C(C)(C)[C@@H]4CC[C@]23C)O1 [PD, panaxadiol]
- blood sugar level [1]: 231.6 mg/dL
- Blood sugar level (post-breeding) [2, 3]: 404 ± 17 mg/dL
- Blood sugar level (post-breeding) [2, 4]: 323 ± 56 mg/dL
- Blood sugar level (post-breeding) [2, 5]: 274 ± 34 mg/dL
- Blood sugar level (initial value) [2, 6]: 454 ± 38 mg/dL
- Blood sugar level (initial value) [2, 7]: 451 ± 34 mg/dL
- Blood sugar level (initial value) [2, 8]: 454 ± 32 mg/dL

SMILES: CC1(C)CCC[C@](C)([C@H]2CC[C@]3(C)[C@@H]2[C@H](O)C[C@@H]2[C@@]4(C)CC[C@H](O)C(C)(C)[C@@H]4[C@@H](O)C[C@]23C)O1 [PT, panaxatriol]
- blood sugar level [1]: 199.3 mg/dL
- Blood sugar level (post-breeding) [2, 3]: 401 ± 15 mg/dL
- Blood sugar level (post-breeding) [2, 4]: 318 ± 58 mg/dL
- Blood sugar level (post-breeding) [2, 5]: 265 ± 39 mg/dL
- Blood sugar level (initial value) [2, 6]: 455 ± 39 mg/dL
- Blood sugar level (initial value) [2, 7]: 451 ± 34 mg/dL
- Blood sugar level (initial value) [2, 8]: 451 ± 38 mg/dL
